Results as given in the NIST ThermoML archive (doi:10.1021/je030207i).
Numbers after ± are expanded uncertainties.

Tests used:
[1] = Liquid; for mass density: 298.15 K, 101.3 kPa; for Normal boiling temperature: Ebulliometric method (Recirculating still)
[2] = excess molar enthalpy (molar enthalpy of mixing); xn = mol fraction of the nth substance listed; details: 101.3 kPa, Liquid, Flow calorimetry

CCCO [propan-1-ol]
[1]
Details | Normal boiling temperature [°C] | mass density [kg/m3]
– | 97.16 ± 0.05 | 799.8 ± 0.3

CCCCO [butan-1-ol]
[1]
Details | Normal boiling temperature [°C] | mass density [kg/m3]
– | 117.71 ± 0.05 | 805.9 ± 0.3

OCCO [1,2-ethanediol] + CCO
excess molar enthalpy [kcal/mol], [2]
Details | 298.15 K | 308.15 K | 323.15 K
x1 = 0.0526 | 0.0266 ± 0.000502 | 0.0283 ± 0.000526 | 0.0307 ± 0.00055
x1 = 0.1045 | 0.0475 ± 0.000717 | 0.0506 ± 0.000741 | 0.0547 ± 0.000789
x1 = 0.1561 | 0.0636 ± 0.000884 | 0.0678 ± 0.000908 | 0.0734 ± 0.00098
x1 = 0.2075 | 0.0758 ± 0.001 | 0.0807 ± 0.00105 | 0.0875 ± 0.00112
x1 = 0.2587 | 0.084 ± 0.00108 | 0.0904 ± 0.00115 | 0.0976 ± 0.00122
x1 = 0.3096 | 0.0907 ± 0.00115 | 0.0971 ± 0.00122 | 0.105 ± 0.00129
x1 = 0.3604 | 0.0945 ± 0.0012 | 0.101 ± 0.00124 | 0.109 ± 0.00134
x1 = 0.4109 | 0.0962 ± 0.0012 | 0.103 ± 0.00127 | 0.111 ± 0.00134
x1 = 0.4611 | 0.0962 ± 0.0012 | 0.103 ± 0.00127 | 0.111 ± 0.00134
x1 = 0.5112 | 0.0945 ± 0.0012 | 0.101 ± 0.00124 | 0.108 ± 0.00131
x1 = 0.561 | 0.091 ± 0.00115 | 0.0971 ± 0.00122 | 0.105 ± 0.00129
x1 = 0.6106 | 0.0858 ± 0.0011 | 0.0915 ± 0.00115 | 0.0986 ± 0.00122
x1 = 0.66 | 0.0793 ± 0.00103 | 0.085 ± 0.0011 | 0.0911 ± 0.00115
x1 = 0.7092 | 0.0716 ± 0.000956 | 0.0765 ± 0.001 | 0.0822 ± 0.00105
x1 = 0.7581 | 0.063 ± 0.00086 | 0.067 ± 0.000908 | 0.0724 ± 0.000956
x1 = 0.8069 | 0.0528 ± 0.000765 | 0.0562 ± 0.000813 | 0.0601 ± 0.000837
x1 = 0.8554 | 0.0412 ± 0.000645 | 0.0432 ± 0.000669 | 0.0472 ± 0.000717
x1 = 0.9037 | 0.0277 ± 0.000526 | 0.0305 ± 0.00055 | 0.0329 ± 0.000574
x1 = 0.9518 | 0.0147 ± 0.000382 | 0.0156 ± 0.000382 | 0.0169 ± 0.000406

CCC(C)O (configuration not stated) [butan-2-ol] + OCCO
excess molar enthalpy [kcal/mol], [2]
Details | 298.15 K | 308.15 K | 323.15 K
x2 = 0.081 | 0.0655 ± 0.000884 | 0.0583 ± 0.000813 | 0.0422 ± 0.000669
x2 = 0.1557 | 0.109 ± 0.00134 | 0.101 ± 0.00124 | 0.0777 ± 0.00103
x2 = 0.226 | 0.136 ± 0.0016 | 0.128 ± 0.00153 | 0.103 ± 0.00127
x2 = 0.2923 | 0.154 ± 0.00177 | 0.145 ± 0.0017 | 0.12 ± 0.00143
x2 = 0.3549 | 0.164 ± 0.00189 | 0.155 ± 0.00179 | 0.131 ± 0.00155
x2 = 0.4142 | 0.167 ± 0.00191 | 0.161 ± 0.00184 | 0.137 ± 0.0016
x2 = 0.4703 | 0.167 ± 0.00191 | 0.161 ± 0.00184 | 0.139 ± 0.00163
x2 = 0.5235 | 0.165 ± 0.00189 | 0.159 ± 0.00182 | 0.139 ± 0.00163
x2 = 0.5741 | 0.16 ± 0.00184 | 0.154 ± 0.00179 | 0.136 ± 0.0016
x2 = 0.6222 | 0.152 ± 0.00174 | 0.148 ± 0.00172 | 0.132 ± 0.00155
x2 = 0.6681 | 0.144 ± 0.00167 | 0.14 ± 0.00163 | 0.126 ± 0.00151
x2 = 0.7117 | 0.133 ± 0.00158 | 0.13 ± 0.00155 | 0.117 ± 0.00141
x2 = 0.7535 | 0.122 ± 0.00146 | 0.119 ± 0.00143 | 0.108 ± 0.00131
x2 = 0.7933 | 0.107 ± 0.00131 | 0.106 ± 0.00129 | 0.0979 ± 0.00122
x2 = 0.8314 | 0.093 ± 0.00117 | 0.0915 ± 0.00115 | 0.0851 ± 0.0011
x2 = 0.868 | 0.0777 ± 0.00103 | 0.0769 ± 0.001 | 0.071 ± 0.000956
x2 = 0.9029 | 0.0603 ± 0.000837 | 0.0602 ± 0.000837 | 0.055 ± 0.000789
x2 = 0.9365 | 0.0421 ± 0.000669 | 0.0412 ± 0.000645 | 0.0373 ± 0.000621
x2 = 0.9687 | 0.0223 ± 0.000454 | 0.0221 ± 0.000454 | 0.0192 ± 0.00043

OCCO [1,2-ethanediol] + CC(C)O
[2]
Details | excess molar enthalpy [kcal/mol]
298.15 K, x1 = 0.0678 | 0.0521 ± 0.000765
298.15 K, x1 = 0.1326 | 0.0876 ± 0.00112
298.15 K, x1 = 0.1951 | 0.112 ± 0.00136
298.15 K, x1 = 0.2555 | 0.128 ± 0.00151
298.15 K, x1 = 0.3138 | 0.138 ± 0.00163
298.15 K, x1 = 0.3702 | 0.143 ± 0.00167
298.15 K, x1 = 0.4248 | 0.145 ± 0.0017
298.15 K, x1 = 0.4776 | 0.144 ± 0.00167
298.15 K, x1 = 0.5287 | 0.14 ± 0.00165
298.15 K, x1 = 0.5782 | 0.134 ± 0.00158
298.15 K, x1 = 0.6262 | 0.127 ± 0.00151
298.15 K, x1 = 0.6727 | 0.118 ± 0.00141
298.15 K, x1 = 0.7178 | 0.107 ± 0.00131
298.15 K, x1 = 0.7617 | 0.0951 ± 0.0012
298.15 K, x1 = 0.8042 | 0.0815 ± 0.00105
298.15 K, x1 = 0.8455 | 0.0677 ± 0.000908
298.15 K, x1 = 0.8857 | 0.0523 ± 0.000765
298.15 K, x1 = 0.9248 | 0.036 ± 0.000598
298.15 K, x1 = 0.9628 | 0.0185 ± 0.00043
308.15 K, x1 = 0.0675 | 0.0506 ± 0.000741
308.15 K, x1 = 0.1325 | 0.0874 ± 0.00112
308.15 K, x1 = 0.1953 | 0.112 ± 0.00136
308.15 K, x1 = 0.2558 | 0.128 ± 0.00151
308.15 K, x1 = 0.3143 | 0.138 ± 0.00163
308.15 K, x1 = 0.3708 | 0.144 ± 0.00167
308.15 K, x1 = 0.4254 | 0.145 ± 0.0017
308.15 K, x1 = 0.4783 | 0.144 ± 0.00167
308.15 K, x1 = 0.5294 | 0.141 ± 0.00165
308.15 K, x1 = 0.589 | 0.135 ± 0.00158
308.15 K, x1 = 0.627 | 0.127 ± 0.00151
308.15 K, x1 = 0.6735 | 0.118 ± 0.00143
308.15 K, x1 = 0.7186 | 0.107 ± 0.00131
308.15 K, x1 = 0.7624 | 0.0959 ± 0.0012
308.15 K, x1 = 0.8049 | 0.0828 ± 0.00108
308.15 K, x1 = 0.8462 | 0.0682 ± 0.000932
308.15 K, x1 = 0.8863 | 0.0527 ± 0.000765
308.15 K, x1 = 0.9252 | 0.0366 ± 0.000598
308.15 K, x1 = 0.9631 | 0.0188 ± 0.00043
323.15 K, x1 = 0.0678 | 0.0469 ± 0.000717
323.15 K, x1 = 0.1326 | 0.0815 ± 0.00105
323.15 K, x1 = 0.1951 | 0.105 ± 0.00129
323.15 K, x1 = 0.2555 | 0.121 ± 0.00146
323.15 K, x1 = 0.3138 | 0.131 ± 0.00155
323.15 K, x1 = 0.3702 | 0.138 ± 0.00163
323.15 K, x1 = 0.4247 | 0.14 ± 0.00165
323.15 K, x1 = 0.4775 | 0.14 ± 0.00163
323.15 K, x1 = 0.5286 | 0.136 ± 0.0016
323.15 K, x1 = 0.5781 | 0.131 ± 0.00155
323.15 K, x1 = 0.6261 | 0.124 ± 0.00148
323.15 K, x1 = 0.6727 | 0.116 ± 0.00141
323.15 K, x1 = 0.7178 | 0.105 ± 0.00129
323.15 K, x1 = 0.7617 | 0.0939 ± 0.00117
323.15 K, x1 = 0.8042 | 0.0816 ± 0.00105
323.15 K, x1 = 0.8456 | 0.0673 ± 0.000908
323.15 K, x1 = 0.8858 | 0.0522 ± 0.000765
323.15 K, x1 = 0.9248 | 0.036 ± 0.000598
323.15 K, x1 = 0.9628 | 0.0189 ± 0.00043

CC(C)O [propan-2-ol]
[1]
Details | Normal boiling temperature [°C] | mass density [kg/m3]
– | 82.20 ± 0.05 | 781.1 ± 0.3
